Measured values: article PMC7591920, “A protein tertiary structure mimetic modulator of the Hippo signalling pathway” (Nature Communications, 2020)
Bridge positions count the residues as written; N and C are the ends. Peptide text beside a SMILES is read from it.

Columns and labels:
[1] = tested on: RKO cells; assay: Sub-cellular (cytoplasmic, nuclear) peptide concentration in RKO cells by UPLC-MS; conditions: for Sub-cellular drug content, Cytoplasm, Measured concentration / Sub-cellular drug content, Cytoplasm, nMol / Sub-cellular drug content, Nuclear, Measured concentration / Sub-cellular drug content, Nuclear, nMol / Sub-cellular drug content, Cytoplasm, pMol.mg-1 / Sub-cellular drug content, Nuclear, pMol.mg-1 / Sub-cellular drug content, Cytoplasm / Sub-cellular drug content, Nuclear: n = 2; for Sub-cellular drug content, Cytoplasm, pMol.mg-1 / Sub-cellular drug content, Nuclear, pMol.mg-1: per mg protein; for Cytoplasmic concentration of peptide: cytoplasmic fraction; for Nuclear concentration of peptide: nuclear fraction; for Cytoplasmic concentration, raw data / Nuclear concentration, raw data: sheet Figure 3c, 25 µM unlabelled peptide; for Intracellular concentration: mass spectrometry; for pMol/mg: Nuclear
Experimental: (§1) Peptides were incubated in RKO cells (ATCC, #CRL-2577) as follows: Experiment 1: RKO cells were incubated in 25 µM compound for 90 min and 24 h. Experiment 2: RKO cells were incubated in 25 µM for 30 min or 72 h. Following peptide incubation, the cells were washed twice with PBS, trypsinized and pelleted. The pellets were lysed in RIPA buffer (Perkin Elmer) for total lysis, or CelLytic NuCLEAR Extraction Kit (SIGMA) for subcellular fractionation. Total protein quantification BCA (Pierce) was performed prior to MS analysis to normalize sample data. Total and fractionated cell lysates were analysed by quantitative UPLC-MS utilizing a Waters Xevo TQ-XS (WBA0259) and an Acquity UPLC system from Waters consisting of Sample Manager (M16UFL953M), Acquity PDA (F17UPD457A), Column Oven (E17CMP703G) and Binary Solvent Manager (E17BUR621G). […] Chromatograms of the samples were treated similarly, and by linear regression (1/x) an in-cell concentration was established in the re-suspended cell lysate using the Waters MassLynx TargetLynx^TM product.

[2] = tested on: RKO cells; assay: Total drug content in RKO cells by UPLC-MS; conditions: 25 µM compound; for Total drug content, Measured Concentration: RIPA total lysis, diluted lysate; for Total drug content, Measured Concentration / Total drug content / Measured Conc: UPLC-MS; for Total drug content, Measured Concentration / Total drug content: n = 2; for Total drug content: total lysis; for Measured Conc / pMol/mg of protein, Mean / pMol/mg, Mean: total drug content; for pMol/mg of protein, Mean / pMol/mg, Mean: mean of 2 replicates
Experimental: as §1

[3] = biological target: T1, mTEAD4 (Mus musculus, UniProt Q62296); assay: SPR binding to immobilised mTEAD4; conditions: mTEAD4 amine-coupled on CM5, multi-cycle, steady-state fit 1:1 model, 10 mM HEPES 150 mM NaCl 0.05% Tween-20 pH 7.4, 0.3% DMSO, 20 °C, Fig. 1 values n = 1 replicate
T1 construct: Mouse TEAD4(210–427) cDNA fused with a 6x His-tag and a 3C protease cleavage site; 6x His-tag; 3C protease cleavage site; made in house; host or cells: E. coli BL21 DE3 RIL(K+)
Experimental: Sensor chips Series S CM5 (Research grade) were obtained from GE Healthcare. Prior to use, the sensor chips were equilibrated at room temperature for 15 min to prevent water condensation on the detector side of the sensor chip surface. A running buffer was prepared composed of 10 mM HEPES, 150 mM NaCl, and 0.05% (w/v) Tween-20, pH 7.4, and the system was equilibrated at 20 °C using a flow rate of 30 µL min^−1 after docking of the sensor chip. Ligand binding experiments have been performed applying the concept of multi-cycle kinetics. A contact time of 45 s was selected, followed by a 6-min dissociation phase to allow for complete dissociation of the analyte prior to the next cycle. […] Typically, seven concentrations of the analytes have been examined applying a threefold dilution pattern with 30 µM as top concentration. For the analysis, five running buffer blanks were injected to equilibrate the instrument. […] The carboxyl-dextran surface was activated for 7 min with 0.05 M NHS and 0.2 M EDC, followed by an injection of the proteins in 10 mM MES pH 6.4 at a concentration of 30–50 µg mL^−1. […] This was followed by a deactivation of the residual esters by injecting a solution of 0.5 M ethanolamine pH 8.0 for 7 min before engaging in ligand binding experiments. Reference surfaces were prepared accordingly, omitting the injection of protein over the activated reference surface.

[4] = 25 µM compound, 90 minutes, fractionation, UPLC-MS
[5] = 25 µM compound, 24 hours, fractionation, UPLC-MS
[6] = 90 minutes, dilution factor 10, replicate 1
[7] = 90 minutes, dilution factor 10, replicate 2
[8] = 24 hours, dilution factor 10, replicate 1
[9] = 24 hours, dilution factor 10, replicate 2

T1 sequence (Q62296 210-427): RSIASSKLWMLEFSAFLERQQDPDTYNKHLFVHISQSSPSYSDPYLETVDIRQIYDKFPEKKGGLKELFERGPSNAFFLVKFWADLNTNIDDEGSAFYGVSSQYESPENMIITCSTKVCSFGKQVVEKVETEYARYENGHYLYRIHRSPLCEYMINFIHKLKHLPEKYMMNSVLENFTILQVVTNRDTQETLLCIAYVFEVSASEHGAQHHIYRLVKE

## CC[C@H](C)[C@H](NC(=O)[C@H](CCC(N)=O)NC(=O)[C@H](CC(C)C)NC(=O)[C@H](Cc1c[nH]c2ccccc12)NC(=O)[C@@H](NC(=O)[C@H](CC(=O)O)NC(=O)CNC(=O)[C@H](CC(C)C)NC(=O)[C@H](C)NC(=O)[C@H](CCCCN)NC(=O)[C@H](C)NC(=O)[C@H](Cc1ccccc1)NC(=O)[C@H](Cc1c[nH]cn1)NC(=O)[C@H](CC(=O)O)NC(=O)[C@H](CC(=O)O)NC(=O)[C@@H](NC(=O)[C@H](CO)NC(C)=O)C(C)C)[C@@H](C)O)C(=O)N[C@@H](CCCCN)C(=O)N[C@@H](C)C(=O)N[C@@H](C)C(N)=O [compound 4] (Ac-SVDDHFAKALGDTWLQIKAA-NH2)
[1]; [4]
  Sub-cellular drug content, Cytoplasm, Measured concentration: < LLOQ
  Sub-cellular drug content, Cytoplasm, nMol: < LLOQ
  Sub-cellular drug content, Nuclear, Measured concentration: < LLOQ
  Sub-cellular drug content, Nuclear, nMol: < LLOQ
  Sub-cellular drug content, Cytoplasm, pMol.mg-1: < LLOQ
  Sub-cellular drug content, Nuclear, pMol.mg-1: < LLOQ
[1]; [5]
  Sub-cellular drug content, Cytoplasm, Measured concentration: < LLOQ
  Sub-cellular drug content, Cytoplasm, nMol: < LLOQ
  Sub-cellular drug content, Nuclear, Measured concentration: < LLOQ
  Sub-cellular drug content, Nuclear, nMol: < LLOQ
  Sub-cellular drug content, Cytoplasm, pMol.mg-1: < LLOQ
  Sub-cellular drug content, Nuclear, pMol.mg-1: < LLOQ
[1]; UPLC-MS, raw data replicate 1
  Cytoplasmic concentration of peptide: <LLOQ
  Nuclear concentration of peptide: <LLOQ
[1]; UPLC-MS, raw data replicate 2
  Cytoplasmic concentration of peptide: <LLOQ
  Nuclear concentration of peptide: <LLOQ
[1]; UPLC-MS, replicate 1
  Cytoplasmic concentration, raw data: <LLOQ
  Nuclear concentration, raw data: <LLOQ
[1]; UPLC-MS, replicate 2
  Cytoplasmic concentration, raw data: <LLOQ
  Nuclear concentration, raw data: <LLOQ
[1]; unlabelled peptide 25 µM, 90 min and 24 h, fractionation, UPLC-MS
  Detection in cytoplasmic and nuclear fractions: not detected in subcellular fractions
[1]; unlabelled peptide 25 µM, 90 min incubation, n = 2 biological replicates
  Intracellular concentration: < LLOQ
[1]; unlabelled peptide 25 µM, 24 hours incubation, N = 2 biological replicates
  Intracellular concentration: < LLOQ
[2]; 90 minutes
  Total drug content, Measured Concentration: 1133.521 ± 133.393 nM
  Total drug content: 1.7 ± 0.2001 nmol
  pMol/mg of protein, Mean: 1685.1 pMol/mg of protein
[2]; 24 hours
  Total drug content, Measured Concentration: 322.145 ± 33.657 nM
  Total drug content: 0.4832 ± 0.05049 nmol
  pMol/mg, Mean: 331.25 pMol/mg
[2]; [6]
  Measured Conc: 1266.91 nM
[2]; [7]
  Measured Conc: 1000.13 nM
[2]; [8]
  Measured Conc: 355.802 nM
[2]; [9]
  Measured Conc: 288.488 nM

## CC[C@H](C)[C@@H]1NC(=O)[C@H](CCC(N)=O)NC(=O)[C@H](C)NC(=O)[C@H](Cc2c[nH]c3ccccc23)NC(=O)[C@H]([C@@H](C)O)NC(=O)[C@H](CC(=O)O)NC(=O)CNC(=O)[C@H](CC(C)C)NC(=O)[C@H](C)NC(=O)[C@H](CCCCN)NC(=O)[C@H](C)NC(=O)[C@H](Cc2ccccc2)NC(=O)[C@H](Cc2c[nH]cn2)NC(=O)[C@H](CC(=O)O)NC(=O)[C@@H](NC(=O)[C@@H](NC(=O)[C@H](CO)NC(C)=O)C(C)C)CCC(=O)NCCCC[C@@H](C(=O)N[C@@H](C)C(=O)N[C@@H](C)C(N)=O)NC1=O [compound 24] (Ac-SVEDHFAKALGDTWAQIKAA-NH2; lactam 3-18)
[3]
  Kd: 2000 ± 140 nM

## CC(=O)NCC(=O)N[C@@H](CCCNC(=N)N)C(=O)N[C@@H](CCCCN)C(=O)N[C@@H](CCCCN)C(=O)N[C@@H](CCCNC(=N)N)C(=O)N[C@@H](CCCNC(=N)N)C(=O)N[C@@H](CCC(N)=O)C(=O)N[C@@H](CCCNC(=N)N)C(=O)N[C@@H](CCCNC(=N)N)C(=O)N[C@@H](CCCNC(=N)N)C(=O)N1CCC[C@H]1C(=O)N[C@@H](CCC(N)=O)C(N)=O [Tat, reference compound]
[1]; [4]
  Sub-cellular drug content, Cytoplasm: 0.137 nmol
  Sub-cellular drug content, Cytoplasm, Measured concentration: 91.363 ± 8.748 nM
  Sub-cellular drug content, Nuclear: 0.6254 nmol
  Sub-cellular drug content, Nuclear, Measured concentration: 416.901 ± 142.802 nM
[1]; [5]
  Sub-cellular drug content, Cytoplasm: 0.1476 nmol
  Sub-cellular drug content, Cytoplasm, Measured concentration: 98.42 ± 12.91 nM
  Sub-cellular drug content, Nuclear: 0.9853 nmol
  Sub-cellular drug content, Nuclear, Measured concentration: 656.841 ± 162.534 nM
[1]; Cytoplasm, 25 µM compound, 90 minutes (1.5 hrs), mean of 2 replicates
  pMol/mg, Mean: 209 pMol/mg
[1]; 25 µM compound, 90 minutes (1.5 hrs), replicate 1
  pMol/mg: 2567 pMol/mg
[1]; 25 µM compound, 90 minutes (1.5 hrs), replicate 2
  pMol/mg: 4988 pMol/mg
[1]; UPLC-MS, mean of n = 2
  Cytoplasmic concentration of peptide: 231.15 pMols/mg of protein
  Nuclear concentration of peptide: 3777.5 pMols/mg of protein
[2]; 90 minutes
  Total drug content, Measured Concentration: 478.752 ± 163.021 nM
  pMol/mg of protein, Mean: 882.5 pMol/mg of protein
[2]; 24 hours
  Total drug content, Measured Concentration: 1797.357 ± 596.21 nM
  Total drug content: 2.696 ± 0.8943 nmol
  pMol/mg, Mean: 1647 pMol/mg
[2]; [6]
  Measured Conc: 641.773 nM
[2]; [7]
  Measured Conc: 315.731 nM
[2]; [8]
  Measured Conc: 2393.57 nM
[2]; [9]
  Measured Conc: 1201.15 nM
